Here are results for ten compounds from ChEMBL document CHEMBL1201862, “PubChem BioAssay data set” (2004).

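How tested: cells in 96-well plates exposed to compound for 48 hours at five concentrations. GI50 marks 50% less growth.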 The source made the active and inactive calls. No stated cut-off is given here; in the data, active = GI50 up to about 1.1 µM and inactive = higher.

Common to all, as to experiment: NCI anticancer screen, dose series, 48 h
Assay [1] has as its system CCRF-CEM.
The subject of assay [2] is EKVX.
The subject of assay [3] is IGROV-1.
Assay [4] deals with OVCAR-5.
Assay [5] concerns HCT-116.
The test system of assay [6] is CAKI-1.
Assay [7] concerns UACC-62.
Assay [8] relates to ACHN.
Assay [9] deals with UO-31.
Assay [10] has as its system SN12C.
Assay [11] relates to NCI-H460.
The test system of assay [12] is SF-268.
In assay [13] the test system is SW-620.
The subject of assay [14] is MDA-N.
For assay [15], the system named is HL-60.
The subject of assay [16] is Malme-3M.
Assay [17] relates to OVCAR-8.
Assay [18] deals with COLO 205.
The test system of assay [19] is HCC 2998.
For assay [20], the system named is TK-10.

As to `CC1=C(C#N)C(=O)N(/N=C/c2ccc(Cl)cc2)C(=O)/C1=c1\o/c(=C2/C(=O)N(/N=C/c3ccc(Cl)cc3)C(=O)C(C#N)=C2C)c2nccnc12`, the GI50 in [1] was 70.3 µM (inactive); in assay [2], > 100 µM (inactive); in [3] it was > 100 µM (inactive); in [4], > 100 µM (inactive); in assay [5], 76.7 µM (inactive); in assay [6], > 100 µM (inactive). The GI50 in assay [7] was > 100 µM (inactive); in assay [8], > 100 µM (inactive); in assay [9], 85.7 µM (inactive); in [10] it was > 100 µM (inactive); in [11], > 100 µM (inactive); in assay [12], 47.3 µM (inactive). Besides, the GI50 in [13] is > 100 µM (inactive); in [14], 77.3 µM (inactive); in assay [15], 84.5 µM (inactive); in assay [16] it was > 100 µM (inactive); in assay [17], > 100 µM (inactive); in assay [18], > 100 µM (inactive). In [19], the GI50 is 42.2 µM (inactive).
Regarding `O=CN1CCN(C(=O)c2ccc(Cl)cc2)C1=S`, the GI50 in assay [1] is 12.8 µM (inactive); in assay [2] it was 15.6 µM (inactive); in [3], 14.2 µM (inactive); in assay [4], 17.4 µM (inactive); in assay [5], 18 µM (inactive); in [6], 14.1 µM (inactive). Also, the GI50 in [7] was 15.9 µM (inactive); in [8], 17.3 µM (inactive); in [10] it was 14.7 µM (inactive); in assay [11] it was 21.6 µM (inactive); in assay [12] it was 19.2 µM (inactive); in assay [13], 18 µM (inactive). For the same compound, the GI50 is 16.6 µM (inactive) in [14]; 23.3 µM (inactive) in [15]; 24.5 µM (inactive) in [16]; 15.6 µM (inactive) in [17]; 15 µM (inactive) in assay [20]; 20.7 µM (inactive) in assay [18]. Also, the GI50 in [19] was 19.8 µM (inactive).
As to `CN(C(=O)c1ccc2c(c1)sc1c(=O)n(C)c3ccccc3c12)c1ccccc1`, the GI50 in assay [1], in [2], in [3], in [4], in [5] and in assay [6] was > 100 µM (inactive) each time. Besides, the GI50 in [7] was > 100 µM (inactive); in assay [8], 33.7 µM (inactive); in assay [9] it was 37.7 µM (inactive); in assay [10], > 100 µM (inactive); in assay [11] it was > 100 µM (inactive); in [13], > 100 µM (inactive). In addition, the GI50 in assay [14], in assay [15], in assay [16], in assay [17], in assay [20] and in assay [18] was > 100 µM (inactive) each time. Further, the GI50 in assay [19] was > 100 µM (inactive).
With `CCC(C)(C)/C(CC(O)(C(F)(F)F)C(F)(F)F)=N\O`, the GI50 in assay [1], in [2], in assay [3], in assay [4], in assay [5] and in assay [6] was > 100 µM (inactive) in each case. Also, the GI50 in assay [7], in [8], in assay [9], in assay [10], in assay [11] and in [12] was > 100 µM (inactive) each time. For the same compound, the GI50 in assay [13], in [14], in [15], in assay [16], in assay [20] and in assay [18] was > 100 µM (inactive) in each case. Also, the GI50 in assay [19] is > 100 µM (inactive).
Consider `O=C(/N=N/c1ccc([N+](=O)[O-])cc1)NNc1ccc([N+](=O)[O-])cc1`, for which the GI50 in [1] is 15.8 µM (inactive); in assay [3], 12.8 µM (inactive); in assay [4], 14.5 µM (inactive); in assay [5], 11.8 µM (inactive); in [6], 18.9 µM (inactive); in [7] it was 10.3 µM (inactive). The GI50 in assay [8] is 13.5 µM (inactive); in [9], 10.9 µM (inactive); in assay [10] it was 13.3 µM (inactive); in assay [11] it was 19.6 µM (inactive); in [12], 21.8 µM (inactive); in assay [13], 18.7 µM (inactive). In addition, the GI50 in assay [14] is 11.6 µM (inactive); in [15], 11.9 µM (inactive); in assay [16] it was 19 µM (inactive); in assay [17] it was 17.2 µM (inactive); in assay [20], 20.1 µM (inactive); in assay [19], 14.2 µM (inactive).
On to `CC(C)(CN1CCCCC1)C(=O)CC(SCCS(=O)(=O)O)c1ccc(Cl)cc1` (configuration not stated), for which the GI50 was 2.74 µM (inactive) in assay [1]; 3.67 µM (inactive) in assay [2]; 6.15 µM (inactive) in assay [3]; 1.86 µM (inactive) in assay [4]; 3.03 µM (inactive) in assay [5]; 6.73 µM (inactive) in assay [6]. Besides, the GI50 in assay [7] was 4.21 µM (inactive); in [8] it was 5.11 µM (inactive); in [9], 4.86 µM (inactive); in [10], 4.56 µM (inactive); in assay [11] it was 6.41 µM (inactive); in assay [13] it was 4.1 µM (inactive). For the same compound, the GI50 in [14] was 2.81 µM (inactive); in assay [15], 6.18 µM (inactive); in assay [16], 5.38 µM (inactive); in assay [17], 3.23 µM (inactive); in [20] it was 6.32 µM (inactive); in assay [18] it was 2.86 µM (inactive). Besides, the GI50 in assay [19] was 12.3 µM (inactive).
With `Cc1cc(N(CCC#N)CCC#N)ccc1/C=N/NC(=O)c1cc(Cl)ccc1O`, the GI50 in assay [1], in assay [2], in [3], in assay [4], in assay [5] and in assay [6] was > 100 µM (inactive) throughout. The GI50 in [7] was > 100 µM (inactive); in [10] it was > 100 µM (inactive); in assay [11], > 100 µM (inactive); in [12], 72.6 µM (inactive); in [14], > 100 µM (inactive); in assay [15] it was 69.2 µM (inactive). Further, the GI50 in assay [16], in assay [17], in assay [20], in [18] and in assay [19] was > 100 µM (inactive) each time.
With `O=C(O)C1CCCN(CCc2c[nH]c3ccccc23)C1` (configuration not stated), the GI50 in assay [1], in [2], in assay [3], in assay [4], in assay [5] and in assay [6] was > 100 µM (inactive) throughout. The GI50 in assay [7], in [8], in [10], in assay [11], in assay [12] and in [13] was > 100 µM (inactive) throughout. For the same compound, the GI50 in assay [14], in assay [15], in [16], in assay [17], in [20] and in [18] was > 100 µM (inactive) throughout. In [19], the GI50 was > 100 µM (inactive).
Take `COC(=O)[C@]1(c2cc3ccccc3n2S(=O)(=O)c2ccccc2)CC2CN(C(=O)OCc3ccccc3)C1C1OC(C)(C)OC21` (some centres not stated): the GI50 in assay [1], in assay [2], in assay [3], in assay [4], in [5] and in assay [6] was > 100 µM (inactive) each time. For the same compound, the GI50 in assay [7], in [8], in [9], in [10], in assay [11] and in assay [13] was > 100 µM (inactive) throughout. In addition, the GI50 was > 100 µM (inactive) in assay [14]; > 100 µM (inactive) in [15]; 2.09 µM (inactive) in assay [16]; > 100 µM (inactive) in assay [17]; > 100 µM (inactive) in [20]; > 100 µM (inactive) in assay [18]. Moreover, in [19], the GI50 is > 100 µM (inactive).
Turning to `CNc1cccc(-c2cc(O)c3cc4c(cc3n2)OCO4)c1`, the GI50 in [1] is 0.236 µM (active); in [3], 0.437 µM (active); in assay [4], 1.79 µM (inactive); in [5], 0.236 µM (active); in assay [6], 0.237 µM (active); in [7], 0.153 µM (active). Further, the GI50 in [8] is 0.883 µM (active); in [9], 0.509 µM (active); in assay [10], 0.553 µM (active); in assay [11], 0.436 µM (active); in [12], 1.05 µM (active); in [13], 0.283 µM (active). In addition, the GI50 is 0.0296 µM (active) in assay [14]; 0.198 µM (active) in [15]; 0.168 µM (active) in assay [16]; 0.409 µM (active) in assay [17]; 1.42 µM (inactive) in assay [20]; 0.167 µM (active) in assay [18]. Also, the GI50 in assay [19] was 0.322 µM (active).
